Assay results taken from US9156860B2, “Boron-containing small molecules” (Anacor Pharmaceuticals, Inc., priority 2011, dated 2015).

Experiments:
[1] = system: Lone star tick larvae (Amblyomma americanum); test: Larval immersion microassay against larval-stage Lone star ticks; conditions: Amblyomma americanum, 24 h, read-out: activity (percent larval mortality)
Experimental: The larval immersion microassay was conducted as described in detail in White, et al., J. Med. Entomol. […] Compounds of the invention were formulated in dimethylsulfoxide (DMSO) to prepare a stock solution at a concentration of at least 10 mM. […] Approximately 30-50 Lone star tick larvae (Amblyomma americanum) were submerged into each well containing compounds. After a 30 minute immersion period, larvae were removed with a wide-bore pipette tip in 0.05 ml of fluid, dispensed into a commercial paper tissue biopsy bag which was sealed at the top with a plastic dialysis clip, inverted and allowed to air dry for 60 minutes. Bags containing larvae were then incubated at approximately 27 degrees Celsius and >90% relative humidity. After 24 hours, bags were opened, live and dead larvae were counted and percent larval mortality was calculated.
7 contains one chiral center, and is therefore a racemic mixture comprised of approximately 50% R- and 50% S-enantiomer. In vitro and surrogate animal (rat) studies were conducted to evaluate the biological activity of the R- and S-enantiomers of 7. For the in vitro study, larvae of the Lone star tick (Amblyomma americanum) were exposed to 17 (S-enantiomer) and 18 (R-enantiomer) using the larval immersion microassay at a concentration of no greater than 0.3 mM. Following exposure, larvae were removed, transferred to a tissue biopsy bag and incubated at approximately 27 degrees Celsius and >90% relative humidity. After 24 hours, biopsy bags were opened and the numbers of live and dead larvae were determined.

[2] = system: adult American dog tick (Dermacentor variabilis); test: Example 4: efficacy against adult American dog tick infestations on dogs; assay type: in vivo; conditions: for therapeutic efficacy: 24 hour post-treatment
Experimental: The therapeutic (knockdown) and residual efficacy of 7, administered orally at a point dosages of 5 and 25 mg/kg bodyweight, was evaluated against adult American dog tick (D. variabilis) and cat flea (C. felis) infestations on dogs. Sixteen (16) male and female beagle dogs were allocated to one of four treatment groups: Untreated control group (n=4 dogs); 7, 5 mg/kg liquid oral dosage form (n=4 dogs); 7, 25 mg/kg liquid oral dosage form (n=4 dogs); and 7, 25 mg/kg solid oral dosage form. Liquid dosage forms were prepared by dissolving 7 in a solution of 55% polyethylene glycol-300, 35% propylene glycol and 10% water at 25 mg/ml. Solid oral dosage form was prepared by thoroughly mixing 7 with microcrystalline cellulose and croscarmellose sodium (50:47:3, w/w) and placing into size 00 gelatin capsules. On Day 0, all dogs were orally administered 7 at the prescribed point dosages. Twenty-four (24) hours before treatment (Day −1), all dogs were infested with approximately 50 unfed, adult-stage American dog ticks (D. variabilis; approximately 50% male and 50% female). […] For all groups, dogs were re-infested with approximately 50 unfed, adult D. variabilis ticks on Days 5 and 12, with tick classification, counts and removal on Days 7 and 14 (approximately 48 hours after each infestation). For negative control and 7 (25 mg/kg solid oral dosage form) groups, dogs were re-infested with approximately 50 unfed, adult D. variabilis ticks on Days 19 and 28, with tick classification, counts and removal on Days 21 and 30. Immediately following removal of ticks on Day 30, dogs in the negative control and 7 (25 mg/kg solid oral dosage form) groups were infested with approximately 100 unfed, adult cat fleas (C. felis). Flea counts were conducted approximately 48 hours later, on Day 32.
The total number of live ticks or fleas (normal plus moribund classification) present on each dog was determined for each interval, and this number was transformed using the natural logarithm transformation plus one (Ln count+1); addition of one to each count served to adjust for counts that were zero. Geometric mean (GM) group tick or flea counts were obtained via back-transformation of group mean transformed counts and subtracting one. The negative control group was used for comparison to 7 groups for the calculation of percent efficacy (% reduction in live tick or flea counts). GM percent efficacy of treatments was calculated using the following formula: […]

[3] = system: brown dog tick (Rhipicephalus sanguineus); test: Example 5: efficacy against brown dog tick infestations on dogs; assay type: in vivo
Experimental: The therapeutic (knockdown) and residual efficacy of 7 and 8, each administered orally at a point dose of either 25 mg/kg or 50 mg/kg bodyweight, was evaluated against adult tick (Dermacentor variabilis and Rhipicephalus sanguineus) infestations on dogs. Twenty (20) male and female beagle dogs were allocated to one of five treatment groups, four (4) dogs per group: Untreated control; 7, 25 mg/kg; 7, 50 mg/kg; 8, 25 mg/kg; and 8, 50 mg/kg. On Day −1, all dogs were infested with approximately 50 unfed, adult D. variabilis ticks. On Day 0, dogs were orally administered gelatin capsules containing either 7 or 8 (50% technical active, 47% microcrystalline cellulose and 3% croscarmellose sodium, w/w) so as to achieve the desired point dosages. Ticks were counted and classified on all dogs, but not removed, on Day 1 (approximately 24 hours after treatment). On Day 2, approximately 48 hours after treatment, ticks were counted, classified and removed. Dogs were re-infested with the same number of D. variabilis ticks on Days 5, 12 and 19 with corresponding 48 hour post-infestation tick counts on Days 7, 14 and 21. Dogs were infested with approximately 50 unfed, adult brown dog ticks (Rhipicephalus sanguineus; approximately 50% male and 50% female) on Days 15 and 28, with corresponding 48 hour post-infestation tick counts on Days 17 and 30. GM percent efficacy of treatments against both tick species was calculated using the following formula: […]

[4] = system: adult cat flea (Ctenocephalides felis); test: Example 7: therapeutic efficacy and speed of kill against adult cat flea infestations on dogs; assay type: in vivo; conditions: 25 mg/kg oral
Experimental: The therapeutic efficacy and speed of kill of 7, administered orally at a point dose of 25 mg/kg bodyweight, was evaluated against adult cat flea (Ctenocephalides felis) infestations on dogs. Twelve (12) male and female beagle dogs were allocated to one of four treatment groups (n=3 dogs per group). Group A was untreated, negative control; groups B, C and D received 7. On Day −1, all dogs were infested with approximately 100 unfed, adult fleas (approximately 50% male and 50% female). On Day 0, dogs in groups B, C and D were orally administered gelatin capsules containing 7, at a point dose of 25 mg/kg (50% technical active, 47% microcrystalline cellulose and 3% croscarmellose sodium, w/w). At eight (8) hours post-treatment, fleas were counted and removed from dogs in group B; at twelve (12) hours post-treatment, fleas were counted and removed from dogs in group C; and at twenty-four (24) hours post-treatment, fleas were counted and removed from dogs in groups A and D. GM percent efficacy of treatments against fleas was calculated using the following formula: […]

[5] = 5 mg/kg oral, liquid dosage form, Day 2
[6] = 5 mg/kg oral, liquid dosage form, Day 7
[7] = 5 mg/kg oral, liquid dosage form, Day 14

CC1(C)OB(O)c2ccc(C3=NOC(c4cc(Cl)c(Cl)c(Cl)c4)(C(F)(F)F)C3)cc21 (racemic) [Compound 7, 3,3-Dimethyl-5-(5-(3,4,5-trichlorophenyl)-5-(trifluoromethyl)-4,5-dihydroisoxazol-3-yl)benzo[c][1,2]oxaborol-1(3H)-ol]
mortality at 300 µM [1]: ≥ 80%
therapeutic and residual efficacy ([2]; 5 mg/kg liquid oral dosage form, all intervals): < 70%
% efficacy [2, 5]: (68.2) %
Geometric mean group live tick count [2, 5]: 10.6
% efficacy [2, 6]: (0.0) %
Geometric mean group live tick count [2, 6]: 36.5
% efficacy [2, 7]: (0.0) %
Geometric mean group live tick count [2, 7]: 36.8
therapeutic efficacy ([2]; 25 mg/kg oral, liquid dosage form): 100%
Geometric mean group live tick count ([2]; 25 mg/kg oral, liquid dosage form, Day 2): 0.0
Geometric mean group live tick count ([2]; 25 mg/kg oral, liquid dosage form, Day 7): 2.6
Geometric mean group live tick count ([2]; 25 mg/kg oral, liquid dosage form, Day 14): 16.9
therapeutic efficacy ([2]; 25 mg/kg oral, solid dosage form): 100%
Geometric mean group live tick count ([2]; 25 mg/kg oral, solid dosage form, Day 2): 0.0
Geometric mean group live tick count ([2]; 25 mg/kg oral, solid dosage form, Day 7): 0.7
Geometric mean group live tick count ([2]; 25 mg/kg oral, solid dosage form, Day 14): 6.3
Geometric mean group live tick count ([2]; 25 mg/kg oral, solid dosage form, Day 21): 6.8
Geometric mean group live tick count ([2]; 25 mg/kg oral, solid dosage form, Day 30): 10.7
% efficacy ([3]; 25 mg/kg oral capsule, Day 17): (75.0) %
Geometric mean group live tick count ([3]; 25 mg/kg oral capsule, Day 17): 8.0
Geometric mean group live tick count ([3]; 50 mg/kg oral capsule, Day 17): 1.6
% efficacy ([3]; 50 mg/kg oral capsule, Day 30): (63.9) %
Geometric mean group live tick count ([3]; 50 mg/kg oral capsule, Day 30): 13.4
% efficacy ([4]; 8 hours post-treatment): (11.8) %
Geometric mean group live flea count ([4]; 8 hours post-treatment): 75.6
Geometric mean group live flea count ([4]; 12 hours post-treatment): 0.3
Geometric mean group live flea count ([4]; 24 hours post-treatment): 0.0
